Patent US20160038532A1, “Treatment of Multiple Sclerosis With Combination of Laquinimod and Glatiramer Acetate” (TEVA PHARMACEUTICAL INDUSTRIES, LTD., priority 2011, published 2016)
“And” between values parts separate entries of the source, which are not always exact repeats. Equal values may be shown once. Marks after values point to notes of the source that are not given here.

Assays:
[1] = test system: MOG-induced EAE; assay: MOG-induced EAE, lower doses of laquinimod with GA-blocking (Example 2.2); assay type: in vivo, C57B1/6 mice
Experimental: MOG is a member of the immunoglobulin superfamily expressed exclusively in CNS myelin. It is one of the most encephalitogenic proteins and is widely used to induce EAE in different rodent strains. In C57BL/6 mice, immunization with the MOG peptide pMOG35-55 in CFA induces chronic progressive EAE.
24 mg MOG was diluted in 8 ml PBS (3 mg/ml, stock solution). Groups 1, 3 and 5: 3.5 ml of stock solution was diluted 1:1 with PBS. […] 4.5 ml of MOG stock solution was added to this solution.
The high dose LAQ (5 mg/10 ml/kg) solution (40 mg in 80 ml DDW) was prepared once weekly and stored at room temperature. For the dose of 2.5 mg/kg LAQ, 25 ml of this solution were added to 25 ml DDW. For the dose 1 mg/kg 5 ml of stock solution (high dose) were added to 20 ml DDW. The compound was administered by gavage once daily during the whole experiment (30 days) at a volume of 0.2 ml/mouse.
The mice were observed daily from the 9th day post-EAE induction (first injection of MOG) and the EAE clinical signs were scored according to the grades described in the 2 above.

[2] = test system: MOG-induced EAE; assay: MOG-induced EAE, repeat study (Example 2.3); assay type: in vivo, C57B1/6 mice
Experimental: 120 female C57B1/6 mice 8-10 weeks old were used the study. Mice were allocated randomly into 8 groups according to Table 7 below.
24 mg MOG was diluted in 8 ml PBS (3 mg/ml, stock solution). Groups 1, 3, 5 and 7: 4 ml of stock solution was diluted 1:1 with PBS. […] This solution was mixed 1:1 with the stock solution of MOG.
The high dose LAQ (25 mg/10 ml/kg) solution (150 mg in 60 ml DDW) was prepared once weekly and stored in the amber glass at room temperature. The lower LAQ doses were prepared daily. For the dose of 5 mg/kg, 1.6 ml of stock solution were added to 6.4 ml DDW. For the dose 1 mg/kg, […] of the previous solution (intermediate dose) were added to 5.2 ml DDW. The compound was administered by gavage once daily during the hole experiment (30 days) at a volume of 0.2 ml/mouse.
The mice were observed daily from the 10th day post-EAE induction (first injection of MOG) and the EAE clinical signs were scored according to the grades described in the 2 above.

[3] = test system: MSCH-induced EAE; assay: MSCH-induced EAE in CSJL/F1 mice (Example 2.8); assay type: in vivo; design: key to MMS value (Mean Maximal Score) / GMS value (Group Mean Score): EAE clinical score per grading table; 5 = sacrificed or died
Experimental: Disease was induced in all mice by the injection of the encephalitogenic emulsion (MSCH/CFA). The test articles and the vehicle were administered orally twice a day.
For groups 1 and 3 to 6, 360.0 mg MSCH was suspended in 3.0 ml PBS to yield 120 mg/ml MSCH suspension.
0.05 ml was injected into the left foot-pad of each mouse. The concentration of MSCH in emulsion in all groups was 60 mg/mL. The dose of the MSCH in all the groups was 3.0 mg/0.05 ml/mouse. The concentration of MT in emulsion in all groups was 0.25 mg/mL. The dose of the MT in all the groups was 0.0125 mg/0.05 ml/mouse.
36 μL Pertussis toxin (200 μg/ml) was added to 44.964 ml PBS to yield 160 ng/ml. The pertussis toxin was administered intravenous on the day of encephalitogen injection and 48 hours later (80.0 ng/0.5 ml/mouse).
Solutions at concentration of 0.001, 0.01, 0.03 and 0.1 mg/mL laquinimod were prepared in water for dose levels of 0.01, 0.1, 0.3 and 1.0 mg/kg respectively. The test formulations were stored at 2 to 8° C. until use in amber colored bottles.
The mice were administered with the respective dose levels of laquinimod at volume dose level of 200 μL/mouse. The test formulations were vortexed before dispensing in syringe.
The different dose levels laquinimod were administered to the respective groups once a day.
Scoring of EAE clinical signs was initiated from the 10th day post-EAE induction and was continued daily until Day 23. The clinical signs were recorded on observation cards according to a grading system described in the table 23 above. Animals with score 4 for more than three days were given score 5 and sacrificed for humane reasons. For calculation purposes, the score (5) of animals that are sacrificed or died were carried forward.
The calculations are as shown in Example 2.4.

[4] = test system: MOG-induced EAE; assay: MOG-induced EAE, laquinimod alone and with GA blocking (Example 2.1), clinical signs; assay type: in vivo, C57B1/6 mice; design: Mortality: concentration or dose not given beside the values
[5] = laquinimod 2.5 mg/kg/day gavage, alone or + GA-blocking 12.5 mg/kg day 0
[6] = laquinimod 5 mg/kg/day gavage, alone or + GA-blocking 12.5 mg/kg day 0
[7] = laquinimod 1 mg/kg/day gavage, alone or + GA-blocking 12.5 mg/kg day 0
[8] = laquinimod 25 mg/kg/day gavage, alone or + GA-blocking 12.5 mg/kg day 0
[9] = LAQ 0.01 mg/kg daily, orally by gavage
[10] = LAQ 0.1 mg/kg daily, orally by gavage
[11] = LAQ 0.3 mg/kg daily, orally by gavage
[12] = LAQ 1.0 mg/kg daily, orally by gavage
[13] = laquinimod 0.1 mg/kg/day oral, alone or + GA 0.5 mg/kg
[14] = GA-blocking 12.5 mg/kg in inoculum day 0
[15] = GA-blocking 12.5 mg/kg with inoculum day 0
[16] = GA 0.5 mg/kg (sub optimal) with encephalitogen
[17] = GA blocking 0.5 mg/kg (sub-optimal dose), with encephalitogen
[18] = GA-blocking 12.5 mg/kg (250 μg/mouse) in inoculum day 0

CCN(C(=O)c1c(O)c2c(Cl)cccc2n(C)c1=O)c1ccccc1 [laquinimod]
inhibition at 2.5 mg/kg ([1]; Mus musculus, po, 0 h, laquinimod 2.5 mg/kg/day gavage, alone or + GA-blocking 12.5 mg/kg day 0, read-out: % Inhibition compared to control (GMS)): 53.7% | inhibition at 5 mg/kg ([1]; Mus musculus, po, 0 h, laquinimod 5 mg/kg/day gavage, alone or + GA-blocking 12.5 mg/kg day 0, read-out: % Inhibition compared to control (GMS)): ≤ 68% | Group Mean Score [1, 5]: 1.50** | Incidence [1, 5]: 13/15 | Mean Disease Duration [1, 5]: 10.2*** days | Mean Maximal Score [1, 5]: 3.17** | Mean Onset [1, 5]: 18.9*** days | Mortality [1, 5]: 1/15 | % inhibition compared to Control (GMS) [1, 6]: 68.2% | Group Mean Score [1, 6]: 1.03*** | Incidence [1, 6]: 12/14 | Mean Disease Duration [1, 6]: 8.6*** days | Mean Maximal Score [1, 6]: 2.89** | Mean Onset [1, 6]: 18.1*** days | Mortality [1, 6]: 0/14 | inhibition at 1 mg/kg ([2]; Mus musculus, po, 0 h, laquinimod 1 mg/kg/day gavage, alone or + GA-blocking 12.5 mg/kg day 0, read-out: % inhibition compared to Control (GMS)): -1.2% | inhibition at 5 mg/kg ([2]; Mus musculus, po, 0 h, laquinimod 5 mg/kg/day gavage, alone or + GA-blocking 12.5 mg/kg day 0, read-out: % inhibition compared to Control (GMS)): 70% | inhibition at 25 mg/kg ([2]; Mus musculus, po, 0 h, laquinimod 25 mg/kg/day gavage, alone or + GA-blocking 12.5 mg/kg day 0, read-out: % inhibition compared to Control (GMS)): 95% | Group Mean Score [2, 7]: 2.50 | Incidence [2, 7]: 15/15 | Mean Disease Duration [2, 7]: 14.1 days | Mean Maximal Score [2, 7]: 4.27 | Mean Onset [2, 7]: 13.7 days | Mortality [2, 7]: 4/15 | Group Mean Score [2, 6]: 0.74** | Incidence [2, 6]: 11/15 | Mean Disease Duration [2, 6]: 6.3*** days | Mean Maximal Score [2, 6]: 2.23* | Mean Onset [2, 6]: 21.0*** days | Mortality [2, 6]: 0/15 | % inhibition compared to Control (GMS) [2, 8]: 95.1% | Group Mean Score [2, 8]: 0.12*** | Incidence [2, 8]: 6/15 | Mean Disease Duration [2, 8]: 1.5*** days | Mean Maximal Score [2, 8]: 0.77*** | Mean Onset [2, 8]: 24.7*** days | Mortality [2, 8]: 0/15 | % Inhibition 1 (according to Incidence) [3, 9]: 0.0% | % Inhibition 2 (according to MMS) [3, 9]: 24.4% | % Inhibition 3 (according to GMS) [3, 9]: 35.3%( ) | GMS value (Group Mean Score) [3, 9]: 2.2 ± 1.2 | Incidence [3, 9]: 10/11 | MMS value (Mean Maximal Score) [3, 9]: 3.4 ± 1.4 | Mean Duration [3, 9]: 9.5 days | Mortality [3, 9]: 2/11 | Onset [3, 9]: 13.7 days | % Inhibition 1 (according to Incidence) [3, 10]: 90.0% | % Inhibition 2 (according to MMS) [3, 10]: 42.2% | % Inhibition 3 (according to GMS) [3, 10]: 55.9%( ) | GMS value (Group Mean Score) [3, 10]: 1.5 ± 1.2 | Incidence [3, 10]: 1/11 | MMS value (Mean Maximal Score) [3, 10]: 2.6 ± 1.8 | Mean Duration [3, 10]: 6.9 days | Mortality [3, 10]: 8/11 | Onset [3, 10]: 16.5 days | % Inhibition 1 (according to Incidence) [3, 11]: 30.0% | % Inhibition 2 (according to MMS) [3, 11]: 53.3% | % Inhibition 3 (according to GMS) [3, 11]: 73.5%( ) | GMS value (Group Mean Score) [3, 11]: 0.9 ± 0.9 | Incidence [3, 11]: 7/11 | MMS value (Mean Maximal Score) [3, 11]: 2.1 ± 1.8 | Mean Duration [3, 11]: 4.2 days | Mortality [3, 11]: 1/11 | Onset [3, 11]: 17.3 days | % Inhibition 1 (according to Incidence) [3, 12]: 90.0% | % Inhibition 2 (according to MMS) [3, 12]: 93.3% | % Inhibition 3 (according to GMS) [3, 12]: 97.1%( ) | GMS value (Group Mean Score) [3, 12]: 0.1 ± 0.3 | Incidence [3, 12]: 1/11 | MMS value (Mean Maximal Score) [3, 12]: 0.3 ± 0.9 | Mean Duration [3, 12]: 0.5 days | Mortality [3, 12]: 0/11 | Onset [3, 12]: 23.5 days | Incidence ([3]; laquinimod 0.01 mg/kg/day oral): 91% | activity according to GMS ([3]; laquinimod 0.01 mg/kg/day oral): 35.3% | activity according to incidence ([3]; laquinimod 0.01 mg/kg/day oral): 9.1% | duration of disease ([3]; laquinimod 0.01 mg/kg/day oral): 13.7 ± 3.8 days | onset of disease ([3]; laquinimod 0.01 mg/kg/day oral): 9.5 ± 3.9 days | activity according to GMS [3, 13]: 55.9% | activity according to incidence [3, 13]: 27.3% | activity according to GMS ([3]; laquinimod 0.3 mg/kg/day oral): 73.5% | activity according to incidence ([3]; laquinimod 0.3 mg/kg/day oral): 36.4% | activity (conclusion) ([3]; laquinimod 1.0 mg/kg as printed, alone or + GA 0.5 mg/kg): 55.9% | activity according to GMS ([3]; laquinimod 1.0 mg/kg/day oral): 97.1% | activity according to incidence ([3]; laquinimod 1.0 mg/kg/day oral): 90.9% | inhibition at 5 mg/kg ([4]; Mus musculus, po, 0 h, laquinimod 5 mg/kg/day gavage, alone or + GA-blocking 12.5 mg/kg day 0, read-out: % inhibition compared to control (GMS)): 31.2% | inhibition at 25 mg/kg ([4]; Mus musculus, po, 0 h, laquinimod 25 mg/kg/day gavage, alone or + GA-blocking 12.5 mg/kg day 0, read-out: % inhibition compared to control (GMS)): 54.4% | Group Mean Score [4, 6]: 2.25** | Incidence [4, 6]: 13/13 | Mean Disease Duration [4, 6]: 13.2*** days | Mean Maximal Score [4, 6]: 4.38* | Mean Onset [4, 6]: 16.8* days | Group Mean Score [4, 8]: 1.49*** | Incidence [4, 8]: 14/15 | Mean Disease Duration [4, 8]: 10.0*** days | Mean Maximal Score [4, 8]: 3.27*** | Mean Onset [4, 8]: 20.3** days | Mortality ([4]; mouse, in vivo): 0/15 and 2/13

L-glutamic acid polymer with L-alanine, L-lysine and L-tyrosine, acetate (salt) [GA]
% inhibition compared to Control (GMS) [1, 14]: 77.5% | Group Mean Score [1, 14]: 0.73*** | Incidence [1, 14]: 11/14 | Mean Disease Duration [1, 14]: 7.1*** days | Mean Maximal Score [1, 14]: 2.18*** | Mean Onset [1, 14]: 18.7*** days | % inhibition compared to Control (GMS) [2, 15]: 78.9% | Group Mean Score [2, 15]: 0.52*** | Incidence [2, 15]: 5/15 | Mean Disease Duration [2, 15]: 3.7*** days | Mean Maximal Score [2, 15]: 0.97*** | Mean Onset [2, 15]: 25.6*** days | Incidence [3, 16]: 4/11 | MMS [3, 16]: 1.1±15 | activity according to GMS [3, 16]: 79.4% | % Inhibition 1 (according to Incidence) [3, 17]: 60.0% | % Inhibition 2 (according to MMS) [3, 17]: 75.5% | % Inhibition 3 (according to GMS) [3, 17]: 79.4%( ) | GMS value (Group Mean Score) [3, 17]: 0.7 ± 1.0 | Incidence [3, 17]: 4/11 | MMS value (Mean Maximal Score) [3, 17]: 1.1 ± 1.5 | Mean Duration [3, 17]: 3.6 days | Onset [3, 17]: 20.4 days | % inhibition compared to Control (GMS) [4, 18]: 48% | Group Mean Score [4, 18]: 1.70** | Incidence [4, 18]: 14/16 | Mean Disease Duration [4, 18]: 10.9*** days | Mean Maximal Score [4, 18]: 3.34** | Mean Onset [4, 18]: 19.5* days
